According to US10927136B2, “Phosphorus prodrugs of pyrazolo-substituted pyrimidine sGC stimulators” (Cyclerion Therapeutics, Inc., priority 2016, dated 2021):
Read-outs that look alike come from different tables or passages of the source.

Biological target: T1, sGC enzyme (Homo sapiens, UniProt Q02108+Q02153)
T1 construct: sGC enzyme activity values in HEK cells, determined by the GloSensor assay; host or cells: HEK293 expressing GloSensor 40F cGMP
T1 sequence (Q02153 1-619): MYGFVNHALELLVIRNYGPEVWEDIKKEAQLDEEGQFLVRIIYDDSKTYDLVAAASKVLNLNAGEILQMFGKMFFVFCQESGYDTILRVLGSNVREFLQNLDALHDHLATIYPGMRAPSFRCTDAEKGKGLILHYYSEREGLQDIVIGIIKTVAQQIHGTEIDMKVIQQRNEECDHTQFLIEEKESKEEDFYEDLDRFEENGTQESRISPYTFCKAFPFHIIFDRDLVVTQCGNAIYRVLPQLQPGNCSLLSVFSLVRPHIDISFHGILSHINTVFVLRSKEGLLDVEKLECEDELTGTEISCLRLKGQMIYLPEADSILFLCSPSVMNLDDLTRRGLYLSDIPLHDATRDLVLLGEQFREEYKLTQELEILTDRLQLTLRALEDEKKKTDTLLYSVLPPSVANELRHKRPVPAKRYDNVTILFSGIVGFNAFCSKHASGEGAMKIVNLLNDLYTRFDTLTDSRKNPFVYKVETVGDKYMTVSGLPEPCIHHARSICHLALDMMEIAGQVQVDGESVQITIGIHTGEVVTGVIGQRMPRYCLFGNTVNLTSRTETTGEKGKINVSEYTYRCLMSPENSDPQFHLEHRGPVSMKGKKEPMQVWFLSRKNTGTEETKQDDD
T1 sequence (Q02108 1-690): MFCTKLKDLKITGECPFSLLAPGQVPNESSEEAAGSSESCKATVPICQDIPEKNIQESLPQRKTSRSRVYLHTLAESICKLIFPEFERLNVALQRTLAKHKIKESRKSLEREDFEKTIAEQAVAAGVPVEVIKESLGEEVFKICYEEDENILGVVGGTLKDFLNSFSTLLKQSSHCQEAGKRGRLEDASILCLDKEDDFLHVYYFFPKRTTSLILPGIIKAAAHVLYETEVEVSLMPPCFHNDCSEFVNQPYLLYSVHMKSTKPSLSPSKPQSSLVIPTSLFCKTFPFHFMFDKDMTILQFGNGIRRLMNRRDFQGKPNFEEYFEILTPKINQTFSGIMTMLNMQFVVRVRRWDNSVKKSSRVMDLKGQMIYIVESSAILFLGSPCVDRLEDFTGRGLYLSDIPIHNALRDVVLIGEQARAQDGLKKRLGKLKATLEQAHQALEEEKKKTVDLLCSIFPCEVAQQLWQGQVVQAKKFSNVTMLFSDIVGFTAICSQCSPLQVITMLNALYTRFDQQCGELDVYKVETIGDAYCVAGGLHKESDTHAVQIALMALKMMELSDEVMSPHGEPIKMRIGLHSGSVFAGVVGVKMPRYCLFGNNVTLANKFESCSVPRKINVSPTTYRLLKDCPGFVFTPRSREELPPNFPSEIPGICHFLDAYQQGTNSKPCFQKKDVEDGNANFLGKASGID
Test: cGMP GloSensor cell-based assay, 384-well format
Conditions: for EC50: HEK293 GloSensor 40F cGMP cells, 10 μM DETA-NONOate, read-out: Absolute EC50
Text: Human embryonic kidney cells (HEK293) cells expressing GloSensor™ 40F cGMP (Part No: CS182801, Promega) were used to evaluate the activity of test compounds. The luminescent biosensors (engineered luciferase) that were incorporated into these cells detect cGMP formed by the compounds stimulating the sGC enzyme and emit luminescence.
cGMP GloSensor cells were maintained in Dulbecco's Modification of Eagle's Medium (DMEM) supplemented with fetal bovine serum (FBS, 10% final) and hygromycine (200 ug/ml). The day before assay, cells were plated in DMEM with 10% FBS in a 50 μL volume at a density of 1.5×10^4 cells/well in a poly-D-lysine coated 384-well flat white-bottom plate (Corning Cat. No. 35661). Cells were incubated overnight at 37° C. in a humidified chamber with 5% CO2. The next day, medium was removed and cells were replaced with 40 ul/well of GloSensor™, 2 mM (Promega Cat No E1291). Cells were treated for 90 minutes at 25° C. to allow the substrate to equilibrate in the cells. Test compounds and Diethylenetriamine NONOate (DETA-NONOate) was diluted to 3 mM (20×) in serum-free CO2 independent medium and serially diluted at 4× dilutions to create 5× dose curve from which 10 ul was added to the wells (x μM concentration for test compound solution and 10 μM concentration for DETA-NONOate solution; wherein x is one of the following final concentrations).
For the kinetics studies, luminescence was measured right away for 0.2 sec per well with Envision (Perkin Elmer). For endpoint SAR screening, data were collected after 55 min incubation at room temperature.
Data analysis was carried out as indicated above in Example 2A.
sGC enzyme activity values in HEK cells, determined by the GloSensor assay, expressed as Absolute EC50 which is defined as the concentration at which a given compound elicits 50% of the high control response obtained with Compound Y, after normalization.

| Structure (SMILES) | sGC agonism as compared to parent drug (GloSensor assay) | EC50 (prodrug) [nM] | EC50 (Parent compound column) [nM] |
| --- | --- | --- | --- |
| O=P(O)(O)OC(CNc1nc(-c2cc(-c3ccon3)n(Cc3ccccc3F)n2)ncc1F)(C(F)(F)F)C(F)(F)F [Compound I-1] | did not exhibit a high degree of sGC agonism | 4840 |  |
| OC(CNc1nc(-c2cc(-c3ccon3)n(Cc3ccccc3F)n2)ncc1F)(C(F)(F)F)C(F)(F)F [Intermediate 3] |  |  | 72 |
